This is an account of results in patent publication US20240400555A1 (Initial Therapeutics, Inc., priority 2023, published 2024).

The first assay has as its system MV-4-11 cells. The assay is described as follows: Cell Viability Assay in MV-4-11 Cells. Particulars: Homo sapiens, MV4-11, 72 h. The format is cell-based. In short, it runs like this:
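Luminescent ATP read-out (CellTiter-Glo) after 72 h compound treatment of MV-4-11 leukaemia cells (7,000 per well, IMDM plus 10% FBS). Values expressed relative to DMSO control and derived by four-parameter non-linear regression.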
The IC50 is the concentration that inhibits the measured activity by half. `C=C(C)c1csc2ccnc(N(C(=O)c3ccc(-c4cn(C)nn4)cc3F)[C@@H]3CCCNC3)c12` [Example 842, (R)-2-fluoro-4-(1-methyl-1H-1,2,3-triazol-4-yl)-N-(piperidin-3-yl)-N-(3-(prop-1-en-2-yl)thieno[3,2-c]pyridin-4-yl)benzamide] returned an IC50 of 270 nM.

Still in this assay, the particulars now being: Homo sapiens, MV4-11, 72 h, MV-4-11 cells, 72 h, Cell-Titer Glo; read-out: IC50.
In the case of `CCc1nnc(-c2ccc(C(=O)N(c3nccc4cccc(C)c34)[C@@H]3CCCNC3)c(F)c2)s1` [Example 837, (R)-4-(5-ethyl-1,3,4-thiadiazol-2-yl)-2-fluoro-N-(8-methylisoquinolin-1-yl)-N-(piperidin-3-yl)benzamide], the IC50 stood at 34 nM. For the molecule `O=C(c1ccc(-c2cnn3c2CCCC3)cc1F)N(c1nccc2sc(C#CCCCO)cc12)[C@@H]1CCCNC1` [Example 839, 2-fluoro-N-[2-(5-hydroxypent-1-ynyl)thieno[3,2-c]pyridin-4-yl]-N-[(3R)-3-piperidyl]-4-(4,5,6,7-tetrahydropyrazolo[1,5-a]pyridin-3-yl)benzamide], the IC50 is 1500 nM. Consider `Cn1cc(-c2ccc(C(=O)N(c3nccc4sc(-c5ccc(C(N)=O)cc5)cc34)[C@@H]3CCCNC3)c(F)c2)nn1` [Example 840, N-[2-(4-carbamoylphenyl)thieno[3,2-c]pyridin-4-yl]-2-fluoro-4-(1-methyltriazol-4-yl)-N-[(3R)-3-piperidyl] benzamide], for which the IC50 turned out to be 1200 nM. Still for that read-out and setting: under `Cc1csc2ccnc(N(C(=O)c3ccc(-c4cn(C)nn4)cc3F)[C@@H]3CCCNC3)c12` [Example 841, (R)-2-fluoro-4-(1-methyl-1H-1,2,3-triazol-4-yl)-N-(3-methylthieno[3,2-c]pyridin-4-yl)-N-(piperidin-3-yl)benzamide] stands 75 nM; under `Cc1cccc2ccnc(N(C(=O)c3ccc(Nc4ccccn4)nc3)[C@@H]3CCCNC3)c12` [Example 843, (R)—N-(8-methylisoquinolin-1-yl)-N-(piperidin-3-yl)-6-(pyridin-2-ylamino)nicotinamide], 2200 nM.

For the molecule `O=C(c1ccc(-n2nnc3cccnc32)cc1F)N(c1nccc2sc(C#CCCCO)cc12)[C@@H]1CCCNC1` [Example 844, (R)-4-(3H-[1,2,3]triazolo[4,5-b]pyridin-3-yl)-2-fluoro-N-(2-(5-hydroxypent-1-yn-1-yl)thieno[3,2-c]pyridin-4-yl)-N-(piperidin-3-yl)benzamide], the 50% inhibitory concentration (IC50) came to 600 nM. Consider `Cc1cc(-c2cnn(C)c2)cc2ccnc(N(C(=O)c3ccc(-c4cn(C)nn4)cc3F)[C@@H]3CCCNC3)c12` [Example 845, 2-fluoro-N-[8-methyl-6-(1-methylpyrazol-4-yl)-1-isoquinolyl]-4-(1-methyltriazol-4-yl)-N-[(3R)-3-piperidyl]benzamide], for which the IC50 was determined as 69 nM. As to `Cc1cccc2ccnc(N(C(=O)c3ccc(Nc4ncccn4)nc3)[C@@H]3CCCNC3)c12` [Example 846, (R)—N-(8-methylisoquinolin-1-yl)-N-(piperidin-3-yl)-6-(pyrimidin-2-ylamino)nicotinamide], the IC50 was 420 nM.

Regarding `Cc1cccc2ccnc(N(C(=O)c3ccc(Nc4ncccn4)c(Cl)c3)[C@@H]3CCCNC3)c12` [Example 847, (R)-3-chloro-N-(8-methylisoquinolin-1-yl)-N-(piperidin-3-yl)-4-(pyrimidin-2-ylamino)benzamide], the IC50 was determined as 2000 nM. Turning to `Cc1cccc2ccnc(N(C(=O)c3ccc(Nc4nccc(N)n4)cc3F)[C@@H]3CCCNC3)c12` [Example 848, (R)-4-((4-aminopyrimidin-2-yl)amino)-2-fluoro-N-(8-methylisoquinolin-1-yl)-N-(piperidin-3-yl)benzamide], the IC50 was 260 nM.

As to `O=C(c1ccc(-n2nnc3cccnc32)cc1F)N(c1nccc2cnccc12)[C@@H]1CCCNC1` [Example 849, (R)-4-(3H-[1,2,3]triazolo[4,5-b]pyridin-3-yl)-2-fluoro-N-(2,6-naphthyridin-1-yl)-N-(piperidin-3-yl)benzamide], the IC50 stood at 2600 nM. For the molecule `COCCn1cc(-c2ccc(C(=O)N(c3nccc4cc(F)cc(C)c34)[C@@H]3CCCNC3)c(F)c2)nn1` [Example 850, 2-fluoro-N-(6-fluoro-8-methyl-1-isoquinolyl)-4-[1-(2-methoxyethyl)triazol-4-yl]-N-[(3R)-3-piperidyl]benzamide], the IC50 amounted to 52 nM. On to `COCc1c(-c2ccc(C(=O)N(c3nccc4scc(C)c34)[C@@H]3CCCNC3)c(F)c2)nnn1C` [Example 851, 2-fluoro-4-[5-(methoxymethyl)-1-methyl-triazol-4-yl]-N-(3-methylthieno[3,2-c]pyridin-4-yl)-N-[(3R)-3-piperidyl]benzamide], for which the IC50 is 61 nM. On to `COCCc1nnc(-c2ccc(C(=O)N(c3nccc4cc(F)cc(C)c34)[C@@H]3CCCNC3)c(F)c2)s1` [Example 852, 2-fluoro-N-(6-fluoro-8-methyl-1-isoquinolyl)-4-[5-(2-methoxyethyl)-1,3,4-thiadiazol-2-yl]-N-[(3R)-3-piperidyl]benzamide], for which the 50% inhibitory concentration (IC50) came to 56 nM.

Consider `COCc1nnc(-c2ccc(C(=O)N(c3nccc4cc(F)cc(C)c34)[C@@H]3CCCNC3)c(F)c2)s1` [Example 853, 2-fluoro-N-(6-fluoro-8-methyl-1-isoquinolyl)-4-[5-(methoxymethyl)-1,3,4-thiadiazol-2-yl]-N-[(3R)-3-piperidyl]benzamide], for which the IC50 was 55 nM. Still for that read-out and setting: under `CCOCc1nnc(-c2ccc(C(=O)N(c3nccc4cc(F)cc(C)c34)[C@@H]3CCCNC3)c(F)c2)s1` [Example 854, 4-[5-(ethoxymethyl)-1,3,4-thiadiazol-2-yl]-2-fluoro-N-(6-fluoro-8-methyl-1-isoquinolyl)-N-[(3R)-3-piperidyl]benzamide] stands 80 nM; under `Cc1ccc(Cl)c2ccnc(N(C(=O)c3ccc(-c4cn(C)nn4)cc3)[C@@H]3CCCNC3)c12` [Example 855, N-(5-chloro-8-methyl-1-isoquinolyl)-4-(1-methyltriazol-4-yl)-N-[(3R)-3-piperidyl]benzamide], 420 nM; under `Cc1nnc(-c2ccc(C(=O)N(c3nccc4c(Cl)ccc(C)c34)[C@@H]3CCCNC3)cc2)s1` [Example 856, N-(5-chloro-8-methyl-1-isoquinolyl)-4-(5-methyl-1,3,4-thiadiazol-2-yl)-N-[(3R)-3-piperidyl]benzamide], 260 nM. As to `Cc1nnc(-c2ccc(C(=O)N(c3nccc4c(Cl)ccc(C)c34)[C@@H]3CCCNC3)nc2)s1` [Example 857, N-(5-chloro-8-methyl-1-isoquinolyl)-5-(5-methyl-1,3,4-thiadiazol-2-yl)-N-[(3R)-3-piperidyl]pyridine-2-carboxamide], the 50% inhibitory concentration (IC50) is 480 nM.

In the case of `COc1cc(C)c2c(N(C(=O)c3ccc(-c4cn(C)nn4)cc3)[C@@H]3CCCNC3)nccc2c1` [Example 858, N-(6-methoxy-8-methyl-1-isoquinolyl)-4-(1-methyltriazol-4-yl)-N-[(3R)-3-piperidyl]benzamide], the IC50 came out at 55 nM. Consider `CCn1cc(-c2ccc(C(=O)N(c3nccc4scc(C)c34)[C@@H]3CCCNC3)cc2)nn1` [Example 859, 4-(1-ethyltriazol-4-yl)-N-(3-methylthieno[3,2-c]pyridin-4-yl)-N-[(3R)-3-piperidyl] benzamide], for which the IC50 amounted to 100 nM. For `COc1cc(C)c2c(N(C(=O)c3ccc(-c4nnc(C)s4)cc3F)[C@@H]3CCCNC3)nccc2c1` [Example 860, 2-fluoro-N-(6-methoxy-8-methyl-1-isoquinolyl)-4-(5-methyl-1,3,4-thiadiazol-2-yl)-N-[(3R)-3-piperidyl]benzamide], the 50% inhibitory concentration (IC50) worked out at 48 nM.

As to `Cc1ccc(C)c2c(N(C(=O)c3ccc(-c4cn(C)nn4)cc3)[C@@H]3CCCNC3)nccc12` [Example 861, N-(5,8-dimethyl-1-isoquinolyl)-4-(1-methyltriazol-4-yl)-N-[(3R)-3-piperidyl]benzamide], the IC50 stood at 620 nM. Still for that read-out and setting: under `Cc1cc(F)c(F)c2ccnc(N(C(=O)c3ccc(-c4cn(C)nn4)cc3)[C@@H]3CCCNC3)c12` [Example 862, N-(5,6-difluoro-8-methyl-1-isoquinolyl)-4-(1-methyltriazol-4-yl)-N-[(3R)-3-piperidyl]benzamide] stands 220 nM.

`CCn1cc(-c2ccc(C(=O)N(c3nccc4cc(OC)cc(C)c34)[C@@H]3CCCNC3)c(F)c2)nn1` [Example 863, 4-(1-ethyltriazol-4-yl)-2-fluoro-N-(6-methoxy-8-methyl-1-isoquinolyl)-N-[(3R)-3-piperidyl] benzamide]: the IC50 came to 29 nM. With `COc1cc(C)c2c(N(C(=O)c3ccc(-c4nnc(C)s4)cn3)[C@@H]3CCCNC3)nccc2c1` [Example 864, N-(6-methoxy-8-methyl-1-isoquinolyl)-5-(5-methyl-1,3,4-thiadiazol-2-yl)-N-[(3R)-3-piperidyl]pyridine-2-carboxamide], the IC50 is 130 nM.

`CCOc1cc(C)c2c(N(C(=O)c3ccc(-c4nnc(C)s4)cn3)[C@@H]3CCCNC3)nccc2c1` [Example 865, N-(6-ethoxy-8-methyl-1-isoquinolyl)-5-(5-methyl-1,3,4-thiadiazol-2-yl)-N-[(3R)-3-piperidyl]pyridine-2-carboxamide]: the IC50 came to 150 nM. `COc1cc(C)c2c(N(C(=O)c3ccc(-c4nnc(C)s4)cc3)[C@@H]3CCCNC3)nccc2c1` [Example 866, N-(6-methoxy-8-methyl-1-isoquinolyl)-4-(5-methyl-1,3,4-thiadiazol-2-yl)-N-[(3R)-3-piperidyl]benzamide]: the IC50 stood at 52 nM.

In the case of `COc1ccc2c(N(C(=O)c3ccc(-c4nnc(C)s4)cn3)[C@@H]3CCCNC3)nccc2c1F` [Example 867, N-(5-fluoro-6-methoxy-1-isoquinolyl)-5-(5-methyl-1,3,4-thiadiazol-2-yl)-N-[(3R)-3-piperidyl]pyridine-2-carboxamide], the IC50 turned out to be 970 nM.

As for `COc1ccc2c(N(C(=O)c3ccc(-c4nnc(C)s4)cc3)[C@@H]3CCCNC3)nccc2c1F` [Example 868, N-(5-fluoro-6-methoxy-1-isoquinolyl)-4-(5-methyl-1,3,4-thiadiazol-2-yl)-N-[(3R)-3-piperidyl]benzamide], the IC50 amounted to 760 nM.
